{"source": "patent EP3797781A1", "about": "“USE OF EC-7072 AND SYNERGIC COMPOSITIONS THEREOF IN TREATMENT OF CHRONIC LYMPHOCYTIC LEUKEMIA” (priority 2019, dated 2021)", "key": {"isolated CLL cells": {"system": "isolated CLL cells", "experiment": "Western blotting of isolated CLL cells", "format": "cell-based, human", "protocol": "Isolated CLL cells were treated with 200 nM EC-7072 for 3, 8 and 12 hours and lysed with lysis buffer [50 mM Tris-HCl (pH 8), 150 mM NaCl, 1 mM EDTA, 1% NP-40, 20 mM NaF, EDTA-free protease inhibitor cocktail and phosSTOPTM (Roche)]. After heat denaturation, 25 µg protein were resolved on 10% and 15% SDS-PAGE gels and transferred to PVDF membranes (Sigma-Aldrich). Membranes were blocked with 5% BSA and incubated overnight at 4 °C with the corresponding primary antibodies (p-PLCγ2 (Y759), p-ERK1/2 (T202/Y204), p-STAT3 (Y705), p-LYN (Y507), STAT3 and GAPDH from Cell Signaling, and PLCγ2, ERK1/2, LYN, BCL-xL and Noxa from Santa Cruz Biotechnology). Blots were developed with secondary antibodies conjugated to IRDye680 or IRDye800 (Li-Cor Biosciences) and signal was detected on an Odyssey scanner.\nLevels of phosphorylated and total proteins were quantified following Western blotting by densitometric analysis employing ImageJ software (https://imagej.nih.gov/ij/). To determine relative protein amounts, signal intensities were first normalized to GAPDH and the ratio between phosphorylated and total proteins was then calculated.\nWestern blot analysis of BCL-xL and Noxa in isolated CLL cells (n = 3) treated with 200 nM EC-7072 for the indicated times was performed (Figure 6E).\nThe inhibition of the tonic BCR pathway by EC-7072 was evaluated by: • (i) incubating PBMCs from patients with CLL, following treatment with 200 nM EC-7072, for 8 hours. Surface expression of CD79A (Figure 7A), CD79B (Figure 7B) and IgM (Figure 7C) in leukemia cells (n = 5 - 6) was assessed by flow cytometry and the MFI was normalized to the control (DMSO) condition; • (ii) incubating isolated leukemia cells from patients with CLL (n = 10), following treatment with EC-7072 (200 nM), for 8 hours. Phosphorylation levels of p-SYK (Figure 7D), p-BTK (Figure 7E) and p-PLCy2 (Figure 7F) proteins and p-ERK1/2 (Figure 7G), p-AKT (Figure 7H), p-p65 NPκB (Figure 7I) and p-STAT3 (Figure 7J) were evaluated by phosphoflow and the MFI was normalized to the control (DMSO) from each individual patient; • (iii) incubating PBMCs from patients with CLL (n = 8), following treatment with EC-7072 (200 nM), for 8 hours. Viability was determined by DiOC6(3)/PI staining and normalized to the control (DMSO) condition for each individual patient to obtain the mean percentage of viable [DiOC6(3)^+] cells (Figure 7K); • (iv) incubating isolated CLL cells (n = 4) stimulated with CD40L (100 ng/mL) or IL-6 (40 ng/mL) for 15 minutes and detecting respective phosphorylation levels of p65 NF-κB (Figure 7L) and STAT3 (Figure 7M) by phosphoflow to obtain the mean MFI normalized to the control (DMSO) condition for each individual patient; • (v) incubating isolated leukemia cells from 3 patients with CLL, following treatment with 200 nM EC-7072, for 3, 8 and 12 hours. Protein lysates were immunoblotted to detect the phosphorylated (p-LYN, p-PLCγ2, p-STAT3 and p-ERK1/2) and total protein (LYN, PLCγ2, STAT3 and ERK1/2) levels (Figure 7N); • (vi) incubating isolated leukemia cells from 3 patients with CLL, following treatment with 200 nM EC-7072, for 3, 8 and 12 hours and immunoblotting of protein lysates to detect p-LYN, LYN, p-PLCγ2, PLCγ2, p-STAT3, STAT3, p-ERK1/2 and ERK1/2. […]"}, "[1]": {"system": "isolated T cells from patients with CLL", "experiment": "qPCR analysis of BCL2 expression in isolated T cells", "format": "cell-based, human", "settings": "200 nM, 6 hours; n = 3", "protocol": "Isolated leukemia cells from patients with CLL were incubated with EC-7072 (200 nM) or DMSO for 6 hours. Total RNA was extracted using RNeasy Mini Kit (Qiagen). 2 µg total RNA were used for cDNA synthesis using High-Capacity cDNA Reverse Transcription Kit (Applied Biosystems). Quantitative RT-PCR was performed using SYBR Green PCR Master Mix (Applied Biosystems) in a 7300 Real-Time PCR System and each sample was analyzed in triplicate. Table 1. Primers used in qPCR\nThe dysregulation of BCL2 expression in primary CLL by EC-7072 was evaluated by: • (i) incubating isolated CLL cells (n = 6) from patients with CLL following treatment with EC-7072 (200 nM) for 6 hours and extracting total RNA. Relative expression of BLC2 was determined by qPCR to obtain the mean relative expression to the control (DMSO) condition (Figure 6F); • (ii) incubating isolated CLL cells (n = 6) following treatment with 200 nM EC-7072 for 12 and 18 hours. BCL2 levels were evaluated by intracellular flow cytometry (Figure 6G); • (iii) incubating isolated T cells (n = 3) from patients with CLL following treatment with EC-7072 (200 nM) for 6 hours and extracting total RNA. […] T-cell death and apoptosis were assessed by DiOC6(3)/PI staining to obtain percentages of viable [DiOC6(3)^+] cells and the mean percentages of apoptotic [DiOC6(3)^low PI^-] and dead [PI^+] cells."}, "[2]": {"settings": "200 nM, 3, 8 and 12 hours, 3 patients"}}}
{"smiles": "CO[C@@H]([C@@H]1Cc2cc3cc(O[C@H]4C[C@@H](O[C@H]5C[C@@H](O)[C@H](O)[C@@H](C)O5)[C@H](O)[C@@H](C)O4)c(C)c(O)c3c(O)c2C(=O)[C@H]1O[C@H]1C[C@@H](O[C@H]2C[C@@H](O[C@H]3C[C@](C)(O)[C@H](O)[C@@H](C)O3)[C@@H](O)[C@@H](C)O2)[C@H](O)[C@@H](C)O1)[C@@H](O)C(C)=O", "note": "[EC-7072, mithramycin SK]", "values": [{"measurement": "levels of p-STAT3 (Western blotting)", "setting": "isolated CLL cells; [2]", "value": "diminished"}, {"measurement": "p-LYN, p-PLCγ2 and p-ERK1/2 (Western blotting)", "setting": "isolated CLL cells; [2]", "value": "time-dependent reduction"}, {"measurement": "total amount of LYN, PLCγ2 and STAT3", "setting": "isolated CLL cells; [2]", "value": "downregulate"}, {"measurement": "levels of the antiapoptotic protein BCL-xL", "setting": "isolated CLL cells; 200 nM, time-dependent, n = 3", "value": "decreased"}, {"measurement": "levels of the proapoptotic protein Noxa", "setting": "isolated CLL cells; 200 nM, time-dependent, n = 3", "value": "increase"}, {"measurement": "BCL2 expression in T cells", "setting": "[1]", "value": "not modulated"}]}
